From ChEMBL document CHEMBL1154339, “Pyranocoumarins: a new class of anti-hyperglycemic and anti-dyslipidemic agents” (Bioorg Med Chem Lett, 2009)
Activity calls are given as the source filed them. The rule behind the calls is not given here.

How the values were obtained:
[1] = target: T1, Glucose-6-phosphatase catalytic subunit 1 (Homo sapiens) (UniProt P35575); assay: Inhibition of glucose 6 phosphatase assessed as inorganic phosphate release at 100 uM
T1 sequence (whole entry): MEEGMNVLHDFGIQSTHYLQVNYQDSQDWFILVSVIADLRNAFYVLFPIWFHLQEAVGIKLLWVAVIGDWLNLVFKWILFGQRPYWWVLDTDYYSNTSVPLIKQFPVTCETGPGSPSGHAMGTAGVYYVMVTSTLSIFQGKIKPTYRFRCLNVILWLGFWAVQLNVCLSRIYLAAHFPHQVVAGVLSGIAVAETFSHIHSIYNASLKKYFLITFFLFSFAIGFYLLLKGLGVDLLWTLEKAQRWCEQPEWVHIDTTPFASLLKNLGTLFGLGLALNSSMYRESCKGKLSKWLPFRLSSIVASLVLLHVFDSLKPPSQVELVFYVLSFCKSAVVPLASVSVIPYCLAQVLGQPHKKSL

[2] = Inhibition of glycogen phosphorylase assessed as inorganic phosphate release at 100 uM
[3] = target: Maltase-glucoamylase (Homo sapiens) (UniProt O43451); assay: Inhibition of alpha-glucosidase at 100 uM
Chain of Maltase-glucoamylase (Homo sapiens) (O43451 whole entry, looked up): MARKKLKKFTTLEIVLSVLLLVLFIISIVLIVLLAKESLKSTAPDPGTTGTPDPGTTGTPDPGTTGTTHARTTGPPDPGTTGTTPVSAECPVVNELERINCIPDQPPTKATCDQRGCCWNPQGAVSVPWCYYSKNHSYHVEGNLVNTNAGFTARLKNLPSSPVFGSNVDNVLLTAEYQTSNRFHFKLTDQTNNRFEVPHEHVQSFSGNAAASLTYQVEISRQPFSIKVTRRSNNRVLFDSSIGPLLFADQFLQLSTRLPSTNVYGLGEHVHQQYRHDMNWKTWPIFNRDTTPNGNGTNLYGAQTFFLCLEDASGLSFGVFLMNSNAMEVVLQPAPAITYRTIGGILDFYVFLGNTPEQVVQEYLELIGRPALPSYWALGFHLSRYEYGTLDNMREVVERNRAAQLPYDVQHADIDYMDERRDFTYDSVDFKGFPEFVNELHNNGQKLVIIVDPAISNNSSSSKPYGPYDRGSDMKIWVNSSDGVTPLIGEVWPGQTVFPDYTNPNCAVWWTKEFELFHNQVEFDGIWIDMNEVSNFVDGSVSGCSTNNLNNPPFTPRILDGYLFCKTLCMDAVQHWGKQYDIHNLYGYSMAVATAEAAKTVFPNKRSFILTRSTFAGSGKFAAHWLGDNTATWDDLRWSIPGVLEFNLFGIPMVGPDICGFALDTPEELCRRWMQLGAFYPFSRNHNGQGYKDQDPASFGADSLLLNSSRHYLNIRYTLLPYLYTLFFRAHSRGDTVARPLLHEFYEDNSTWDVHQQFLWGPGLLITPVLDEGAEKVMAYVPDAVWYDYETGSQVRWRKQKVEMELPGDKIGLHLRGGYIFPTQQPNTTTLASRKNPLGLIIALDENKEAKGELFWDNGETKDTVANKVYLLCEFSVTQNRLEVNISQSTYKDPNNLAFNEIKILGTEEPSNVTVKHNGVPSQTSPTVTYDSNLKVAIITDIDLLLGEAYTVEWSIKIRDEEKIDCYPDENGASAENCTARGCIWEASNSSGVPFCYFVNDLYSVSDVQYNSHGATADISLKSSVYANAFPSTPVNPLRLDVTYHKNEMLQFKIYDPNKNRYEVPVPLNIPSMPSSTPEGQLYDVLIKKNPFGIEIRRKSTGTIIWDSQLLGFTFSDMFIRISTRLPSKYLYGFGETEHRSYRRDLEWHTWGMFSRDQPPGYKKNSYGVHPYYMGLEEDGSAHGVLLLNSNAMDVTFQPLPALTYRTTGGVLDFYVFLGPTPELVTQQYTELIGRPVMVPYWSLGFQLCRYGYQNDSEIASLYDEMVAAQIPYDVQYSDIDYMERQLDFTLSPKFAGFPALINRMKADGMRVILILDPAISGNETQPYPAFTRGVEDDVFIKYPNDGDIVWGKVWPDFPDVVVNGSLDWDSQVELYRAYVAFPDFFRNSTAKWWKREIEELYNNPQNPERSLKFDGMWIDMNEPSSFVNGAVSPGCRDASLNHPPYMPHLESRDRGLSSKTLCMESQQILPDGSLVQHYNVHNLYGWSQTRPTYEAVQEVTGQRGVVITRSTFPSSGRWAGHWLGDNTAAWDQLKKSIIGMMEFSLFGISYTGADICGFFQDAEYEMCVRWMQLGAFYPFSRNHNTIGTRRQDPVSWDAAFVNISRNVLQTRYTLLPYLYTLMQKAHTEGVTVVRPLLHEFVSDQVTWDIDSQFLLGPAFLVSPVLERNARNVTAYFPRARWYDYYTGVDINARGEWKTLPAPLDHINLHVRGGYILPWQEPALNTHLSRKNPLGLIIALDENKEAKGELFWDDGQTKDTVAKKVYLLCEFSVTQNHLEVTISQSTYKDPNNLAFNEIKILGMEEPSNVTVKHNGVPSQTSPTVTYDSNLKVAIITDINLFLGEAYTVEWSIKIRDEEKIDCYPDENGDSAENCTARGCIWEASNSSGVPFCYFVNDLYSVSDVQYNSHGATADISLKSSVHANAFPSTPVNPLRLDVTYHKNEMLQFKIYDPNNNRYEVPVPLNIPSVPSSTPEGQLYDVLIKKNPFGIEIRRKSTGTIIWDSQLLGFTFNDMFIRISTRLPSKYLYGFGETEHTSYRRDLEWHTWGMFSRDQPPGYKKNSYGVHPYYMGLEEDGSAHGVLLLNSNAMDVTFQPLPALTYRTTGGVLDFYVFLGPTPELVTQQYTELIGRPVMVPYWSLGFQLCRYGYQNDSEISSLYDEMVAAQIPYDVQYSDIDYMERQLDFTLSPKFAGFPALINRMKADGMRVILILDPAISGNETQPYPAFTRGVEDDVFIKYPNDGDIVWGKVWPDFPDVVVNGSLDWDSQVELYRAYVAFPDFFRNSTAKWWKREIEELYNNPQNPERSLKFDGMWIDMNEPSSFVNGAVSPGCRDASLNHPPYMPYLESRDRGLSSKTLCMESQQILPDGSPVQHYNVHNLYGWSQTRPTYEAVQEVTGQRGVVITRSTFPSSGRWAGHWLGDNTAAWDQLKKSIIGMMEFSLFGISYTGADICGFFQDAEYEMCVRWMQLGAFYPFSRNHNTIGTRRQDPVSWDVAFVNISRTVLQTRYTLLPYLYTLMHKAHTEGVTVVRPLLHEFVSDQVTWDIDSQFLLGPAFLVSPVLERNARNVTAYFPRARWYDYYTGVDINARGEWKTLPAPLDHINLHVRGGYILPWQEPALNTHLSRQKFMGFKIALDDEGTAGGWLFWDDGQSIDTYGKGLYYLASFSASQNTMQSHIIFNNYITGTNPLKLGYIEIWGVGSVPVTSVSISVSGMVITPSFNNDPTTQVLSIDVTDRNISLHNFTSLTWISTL

[4] = target: Dipeptidyl peptidase 4 (Homo sapiens) (UniProt P27487); assay: Inhibition of DPP4 at 100 uM
Chain of Dipeptidyl peptidase 4 (Homo sapiens) (P27487 whole entry, looked up): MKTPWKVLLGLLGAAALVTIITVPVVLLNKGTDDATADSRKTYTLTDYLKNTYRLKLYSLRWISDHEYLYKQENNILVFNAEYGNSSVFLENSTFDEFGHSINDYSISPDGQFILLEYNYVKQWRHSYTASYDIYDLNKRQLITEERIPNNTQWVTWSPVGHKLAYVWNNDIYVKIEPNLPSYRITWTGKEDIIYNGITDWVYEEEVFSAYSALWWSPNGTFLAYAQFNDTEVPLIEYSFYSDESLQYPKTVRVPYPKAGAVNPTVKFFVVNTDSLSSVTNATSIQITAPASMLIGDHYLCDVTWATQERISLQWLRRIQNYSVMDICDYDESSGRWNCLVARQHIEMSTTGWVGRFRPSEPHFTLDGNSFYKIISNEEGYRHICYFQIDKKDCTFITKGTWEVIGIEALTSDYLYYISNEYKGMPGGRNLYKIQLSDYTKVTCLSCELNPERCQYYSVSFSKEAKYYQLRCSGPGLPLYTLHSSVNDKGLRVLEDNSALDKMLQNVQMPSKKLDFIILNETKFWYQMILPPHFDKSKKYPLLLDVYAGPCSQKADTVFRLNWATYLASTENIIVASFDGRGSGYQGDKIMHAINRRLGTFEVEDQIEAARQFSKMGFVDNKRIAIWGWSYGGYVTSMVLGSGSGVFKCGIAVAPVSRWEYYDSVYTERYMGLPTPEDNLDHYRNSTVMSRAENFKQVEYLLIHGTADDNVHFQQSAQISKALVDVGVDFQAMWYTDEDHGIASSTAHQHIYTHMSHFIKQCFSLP

[5] = target: T2, Tyrosine-protein phosphatase non-receptor type 1 (Homo sapiens) (UniProt P18031); assay: Inhibition of PTP1B at 100 uM
T2 sequence (whole entry): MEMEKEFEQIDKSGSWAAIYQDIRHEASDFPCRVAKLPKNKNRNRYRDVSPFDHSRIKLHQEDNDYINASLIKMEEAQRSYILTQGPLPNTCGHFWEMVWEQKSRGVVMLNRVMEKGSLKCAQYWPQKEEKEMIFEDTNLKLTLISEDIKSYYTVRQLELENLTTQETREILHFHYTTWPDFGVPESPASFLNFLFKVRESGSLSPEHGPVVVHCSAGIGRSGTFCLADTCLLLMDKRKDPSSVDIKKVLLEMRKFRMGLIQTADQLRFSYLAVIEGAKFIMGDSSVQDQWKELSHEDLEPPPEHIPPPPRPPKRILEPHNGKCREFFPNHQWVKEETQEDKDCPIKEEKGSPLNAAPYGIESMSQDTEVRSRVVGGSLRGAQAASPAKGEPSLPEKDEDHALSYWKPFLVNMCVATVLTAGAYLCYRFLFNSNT

[6] = target: T3, Tyrosine-protein phosphatase non-receptor type 1 (Homo sapiens, UniProt P18031); assay: Inhibition of PTP1B
T3 sequence (P18031 whole entry): T2 sequence (whole entry)

[7] = system: Rattus norvegicus; assay: Antidyslipidemic activity against triton WR-1339-induced hyperlipidemia in Charles Foster rat assessed as reduction in plasma total cholesterol level at 100 mg/kg, po after 18 hrs; type: functional
[8] = system: Rattus norvegicus; assay: Antidyslipidemic activity against triton WR-1339-induced hyperlipidemia in Charles Foster rat assessed as reduction in plasma phospholipid level at 100 mg/kg, po after 18 hrs; type: functional
[9] = system: Rattus norvegicus; assay: Antidyslipidemic activity against triton WR-1339-induced hyperlipidemia in Charles Foster rat assessed as reduction in plasma triglyceride level at 100 mg/kg, po after 18 hrs; type: functional
[10] = system: Rattus norvegicus; assay: Antihyperglycemic activity in sucrose loaded Charles Foster/Wistar rat model assessed as reduction in blood glucose level at 100 mg/kg; type: functional; parameters: scale not given: the % may be the effect or the level left
[11] = system: Rattus norvegicus; assay: Antihyperglycemic activity in sucrose challenged streptozotocin-induced diabetic Sprague-Dawley rat model assessed as reduction in blood glucose level at 100 mg/kg after 24 hrs; type: functional; parameters: scale not given: the % may be the effect or the level left
[12] = system: Mus musculus; assay: Antihyperglycemic in leptin receptor deficient mouse C57BL/KsBom-db assessed as blood glucose lowering activity at 100 mg/kg after 5 days by oral glucose tolerance test; type: functional
[13] = system: Mus musculus; assay: Antihyperglycemic in leptin receptor deficient mouse C57BL/KsBom-db assessed as blood glucose lowering activity at 100 mg/kg after 10 days by oral glucose tolerance test; type: functional

Row | SMILES | inhibition [1] [%] | inhibition [2] | inhibition [3] | inhibition [4] | inhibition [5] [%] | IC50 [6] [µM] | Activity [7] | Activity [8] | Activity [9] | Activity [10] [%] | Activity [11] [%] | Activity [12] [%] | Activity [13] [%]
1 | Cc1cc(=O)oc2c3c(ccc12)OCC(CN1CCN(c2ccccc2)CC1)(CN1CCN(c2ccccc2)CC1)C3=O | 21.5 | 22.1% | 15.9% | 15.2% | 28.7 | – | – | – | – | – | – | – | –
2 | Cc1cc(=O)oc2c3c(ccc12)OCC(CO)(CN1CCCCC1)C3=O (stereo not drawn) | 7.36 | inactive | 37.3% | inactive | 64 | 62.1 | Active | Active | Active | – | – | – | –
3 | CCOCC1(CN2CCOCC2)COc2ccc3c(C)cc(=O)oc3c2C1=O (stereo not drawn) | 12.4 | 8.4% | inactive | inactive | 92.2 | 24.5 | Active | Active | Active | 35.5 | 35.5 | 21.1 | 38
4 | Cc1ccc(C)c(OCCCC(C)(C)C(=O)O)c1 [GEMFIBROZIL] | – | – | – | – | – | – | 37.1% | 39.1% | 36.1% | – | – | – | –
5 | CCOCC1(CN2CCCCC2)COc2ccc3c(C)cc(=O)oc3c2C1=O (stereo not drawn) | 6.56 | 8.5% | inactive | 12.6% | 88.5 | 36.2 | Active | Active | Active | 38.1 | 37.7 | 19.5 | 42
6 | Cc1cc(=O)oc2c3c(ccc12)OCC(CO)(CN1CCOCC1)C3=O (stereo not drawn) | 3.5 | inactive | 34.3% | 12% | 83.3 | 52.4 | Active | Active | Active | 28.2 | 25.3 | – | –
7 | CCCCN(CCCC)CC1(COCC)COc2ccc3c(C)cc(=O)oc3c2C1=O (stereo not drawn) | 11.1 | 8.7% | 27.9% | inactive | 80.5 | 40.5 | Active | Active | Active | 30.6 | 24.4 | – | –
8 | Cc1cc(=O)oc2c3c(ccc12)OCC(CN1CCCC1)(CN1CCCC1)C3=O | 8.28 | 15.2% | inactive | 8.2% | 29.8 | – | – | – | – | – | – | – | –
9 | CCOCC1(CN2CCN(c3ccccn3)CC2)COc2ccc3c(C)cc(=O)oc3c2C1=O (stereo not drawn) | 9.67 | 30.1% | 11.3% | inactive | 54.5 | 76.2 | – | – | – | – | – | – | –
10 | CCOCC1(CN2CCCC2)COc2ccc3c(C)cc(=O)oc3c2C1=O (stereo not drawn) | 8.31 | 8.3% | 12% | 13.2% | 72.1 | 82.7 | – | – | – | 31.8 | 28.8 | – | –
11 | Cc1cc(=O)oc2c3c(ccc12)OCC(CN1CCN(C)CC1)(CN1CCN(C)CC1)C3=O | 13 | 10.2% | 6.4% | 12.5% | 22 | – | – | – | – | – | – | – | –
12 | CCOCC1(CN(CC)CC)COc2ccc3c(C)cc(=O)oc3c2C1=O (stereo not drawn) | 24.2 | inactive | inactive | inactive | 74.1 | 90.4 | Active | Active | Active | – | – | – | –
13 | Cc1cc(=O)oc2c3c(ccc12)OCC(CO)(CN1CCCC1)C3=O (stereo not drawn) | 5.83 | 8.3% | 22.1% | 8.3% | 74.6 | 56.7 | – | – | – | 30.3 | 24 | – | –
14 | Cc1cc(=O)oc2c3c(ccc12)OCC(CN1CCCCC1)(CN1CCCCC1)C3=O | 13.8 | 17.2% | 7.3% | 6.8% | 33.3 | – | – | – | – | – | – | – | –
15 | CCN(CC)CC1(CN(CC)CC)COc2ccc3c(C)cc(=O)oc3c2C1=O | 9.45 | 12.2% | 8.5% | 8.1% | 41.3 | – | – | – | – | – | – | – | –
16 | CCOCC1(CN2CCN(c3ccccc3)CC2)COc2ccc3c(C)cc(=O)oc3c2C1=O (stereo not drawn) | 31.7 | inactive | 16.2% | inactive | 62.3 | 70.6 | – | – | – | – | – | – | –
17 | Cc1cc(=O)oc2c3c(ccc12)OCC(CN1CCN(c2ccccn2)CC1)(CN1CCN(c2ccccn2)CC1)C3=O | 28 | 11% | 15.8% | 9.8% | 41.3 | – | – | – | – | – | – | – | –
18 | CCOCC1(CN2CCN(C)CC2)COc2ccc3c(C)cc(=O)oc3c2C1=O (stereo not drawn) | 17.4 | 26.9% | inactive | 7.9% | 70.3 | 65.5 | Active | Active | Active | 32.5 | 18.7 | – | –
19 | CCCCN(CCCC)CC1(CN(CCCC)CCCC)COc2ccc3c(C)cc(=O)oc3c2C1=O | 20.4 | 11.1% | inactive | 11.4% | 43.6 | – | – | – | – | – | – | – | –
20 | Cc1cc(=O)oc2c3c(ccc12)OCC(CN1CCOCC1)(CN1CCOCC1)C3=O | 6.78 | 12.8% | 8.3% | 8.8% | 24.7 | – | – | – | – | – | – | – | –
